# In patent publication US8697694B2, “Substituted pyridine and pyrimidine derivatives and their use in treating viral infections” (priority 2008, dated 2014):
# System: HCV replicon cells
# Assay: Cell-based HCV replicon assay (replicon RNA level by real time PCR, Taqman)
# Details: Hepatitis C virus, 72 h, HCV replicon cells, harvested day 3, replicon RNA by real time PCR; given as number; read-out: EC90 (μM) range
# Summary of the method: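 Readout: ΔCT between NS5B replicon RNA and GAPDH by real-time RT-PCR in lysates harvested on day 3, fitted sigmoidally; EC50 at ΔCT=1, EC90 at ΔCT=3.2. Compounds tested at ten 2-fold dilutions from 25 μM to 1 μM start, 10% FBS, 0.5% DMSO.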
row,SMILES,EC90 [µM]
1,CCOc1cc2cc(-c3c(C)nc(NCC4CC4)nc3N[C@@H]3C[C@H](CO)[C@@H](O)[C@H]3O)oc2c(C)n1 [Example 30],0.14

# Same assay, conditions: Hepatitis C virus, 72 h, HCV replicon cells, harvested day 3, replicon RNA by real time PCR; reported as range class; read-out: EC90 (μM) range
row,SMILES,EC90 [µM]
1,Cc1ccc2oc(-c3c(Cl)nc(N)nc3N[C@@H]3C[C@H](CO)[C@H]4OC(C)(C)O[C@H]43)nc2c1 [Example 192],> 5
2,Cc1nc(NCCC(F)(F)F)nc(N[C@@H]2C[C@H](CO)[C@@H](O)[C@H]2O)c1-c1nc2ccccc2s1 [Example 218],< 0.5
3,Nc1nc(Cl)c(-c2cc3cnc(=O)[nH]c3o2)c(N[C@@H]2C[C@H](CO)[C@@H](O)[C@H]2O)n1 [Example 307],> 5
4,Nc1nc(Cl)c(-c2nc3ccc(OCc4ccccc4)cc3s2)c(N[C@@H]2C[C@H](CO)[C@@H](O)[C@H]2O)n1 [Example 199],> 5
5,CN(C)c1nc(N[C@@H]2C[C@H](CO)[C@@H](O)[C@H]2O)c(-c2nc3ccccc3s2)c(-c2cccs2)n1 [Example 415],> 5
6,CCOCCNc1nc(Cl)c(-c2nc3ccccc3s2)c(N[C@@H]2C[C@H](CO)[C@@H](O)[C@H]2O)n1 [Example 206],< 0.5
7,NC(=O)c1ccc2cc(-c3c(Cl)nc(N)nc3N[C@@H]3C[C@H](CO)[C@@H](O)[C@H]3O)oc2c1 [Example 178],> 5

# Same assay, conditions: Hepatitis C virus, 72 h, HCV replicon cells, harvested on day 3, replicon RNA by real time PCR; calculated EC90 reported as range class; read-out: EC90 (μM) range
row,SMILES,EC90 [µM]
1,CSc1nc(C)c(-c2nc3ccccc3s2)c(N[C@@H]2C[C@H](CO)[C@@H](O)[C@H]2O)n1 [Example 326],0.5 to 5
2,CO[C@H](C)CNc1nc(C)c(-c2nc3ccccc3s2)c(N[C@@H]2C[C@H](CO)[C@@H](O)[C@H]2O)n1 [Example 231],< 0.5
3,OC[C@H]1C[C@@H](Nc2nc(NC(CF)CF)nc(Cl)c2-c2nc3ccccc3s2)[C@H](O)[C@@H]1O [Example 129],< 0.5
4,CCc1cc2cc(-c3c(C)nc(NCc4cc(OC)cc(OC)c4)nc3N[C@@H]3C[C@H](CO)[C@@H](O)[C@H]3O)oc2cn1 [Example 346],< 0.5
5,CCOCCNc1nc(C)c(-c2nc(C)c(C)s2)c(N[C@@H]2C[C@H](CO)[C@@H](O)[C@H]2O)n1 [Example 137],0.5 to 5
6,COc1cc(CNc2nc(C)c(-c3cc4cc(OC)nc(C)c4o3)c(N[C@@H]3C[C@H](CO)[C@H]4OC(C)(C)O[C@H]43)n2)cc(OC)c1 [Example 347],< 0.5
7,Cc1nc(NCc2cccc(C(F)(F)F)c2)nc(N[C@@H]2C[C@H](CO)[C@@H](O)[C@H]2O)c1-c1nc2ccccc2s1 [Example 240],< 0.5
8,Cc1nc(NC(CF)CF)nc(N[C@@H]2C[C@H](CO)[C@@H](O)[C@H]2O)c1-c1nc2ccccc2s1 [Example 130],> 5
9,Cc1nc(NCC2CCOCC2)nc(N[C@@H]2C[C@H](CO)[C@@H](O)[C@H]2O)c1-c1nc2ccccc2s1 [Example 449],< 0.5

# Same assay, conditions: Hepatitis C virus, 72 h, HCV replicon cells, replicon RNA level by real time PCR (Taqman), harvested on day 3; calculated EC90 reported as range class; read-out: EC90 (μM) range
row,SMILES,EC90 [µM]
1,COCCCCNc1nc(C)c(-c2nc3cnccc3s2)c(N[C@@H]2C[C@H](CO)[C@@H](O)[C@H]2O)n1 [Example 1050],< 0.5
2,Cc1nc(NCc2cccc(C(=O)O)c2)nc(N[C@@H]2C[C@H](CO)[C@@H](O)[C@H]2O)c1-c1nc2ccccc2s1 [Example 1219],> 5
3,COc1ccc(Nc2nc(C)c(-c3nc4ccccc4s3)c(N[C@@H]3C[C@H](CO)[C@@H](O)[C@H]3O)n2)cc1 [Example 1221],0.5 to 5

# Same assay, conditions: Hepatitis C virus, 72 h, HCV replicon cells, replicon RNA level by real time PCR, harvested day 3; read-out: EC90 (μM) range
row,SMILES,EC90 [µM]
1,Cc1nc(NC(C)c2cccnc2)nc(N[C@@H]2C[C@H](CO)[C@@H](O)[C@H]2O)c1-c1nc2ccccc2s1 (some centres unmarked) [Example 1802],0.5 to 5
2,Cc1cc(NCC2CC2)nc(N[C@@H]2C[C@H](CO)[C@@H](O)[C@H]2O)c1-c1nc2ccccc2s1 [Example 1616],> 5
3,Cc1nc(Nc2cccc3cccnc23)nc(N[C@@H]2C[C@H](CO)[C@@H](O)[C@H]2O)c1-c1nc2ccccc2s1 [Example 1620],> 5
4,Cc1nc(NCc2c(F)cccc2F)nc(N[C@@H]2CC[C@@H](O)[C@@]2(C)O)c1-c1nc2cnccc2s1 [Example 1808],< 0.5
5,Cc1ccccc1[C@H](Nc1nc(C)c(-c2nc3c(C)nccc3s2)c(N[C@@H]2C[C@H](CO)[C@@H](O)[C@H]2O)n1)C(F)(F)F [Example 1539],< 0.5
6,Cc1nc(NCC2CC2)nc(N[C@@H]2CC[C@@H](O)[C@@]2(C)O)c1-c1nc2cnccc2s1 [Example 1704],< 0.5
